Measured values published in US8598365B2, “Herbicides” (Syngenta Limited, priority 2007, dated 2013).

test system: Setaria faberi (SETFA); assay: Example B pre-emergence herbicidal activity; type: in vivo; conditions: 312 h, rate 250 g/ha, evaluated after 13 days, read-out: Pre-Emergence Activity SETFA (100=total damage to plant; 0=no damage to plant)
How it was run: (§1)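 Damage was rated 13 days after treatment on a 0 (no damage) to 100 (total damage) scale. Pots of soil-sown plants had been sprayed one day after sowing for pre-emergence or at 8 days for post-emergence. Spray: acetone/water (50:50), 0.5% Tween 20.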

How did the pest or weed control at 250 g/ha turn out when COc1ccc(-c2nc(C3C(=O)[C@@H]4CC[C@@H](C4)C3=O)c(C)s2)cc1F (stereo partly shown) [Compound T76] was run?
The pest or weed control at 250 g/ha was 70%.

COc1ccc(-c2nc(C3C(=O)[C@@H]4CC[C@@H](C4)C3=O)c(C)s2)cc1 (stereo partly shown) [Compound T58] was tested. Which pest or weed control at 250 g/ha did it give?
Its pest or weed control at 250 g/ha is 60%.

With CCc1sc(-c2cc(F)c(Cl)cc2Cl)nc1C1C(=O)[C@@H]2CC[C@@H](C2)C1=O (stereo partly shown) [Compound T53] as the compound, how does the pest or weed control at 250 g/ha read?
The pest or weed control at 250 g/ha was 100%.

Cc1sc(-c2ccc3ccccc3c2)nc1C1C(=O)[C@@H]2CC[C@@H](C2)C1=O (stereo partly shown) [Compound T63] was tested. Which pest or weed control at 250 g/ha did it give?
Its pest or weed control at 250 g/ha is 90%.

test system: Echinochloa crus-galli (ECHCG); assay: Example B pre-emergence herbicidal activity; type: in vivo; conditions: 312 h, rate 250 g/ha, evaluated after 13 days, read-out: Pre-Emergence Activity ECHCG (100=total damage to plant; 0=no damage to plant)
How it was run: as §1

How did the pest or weed control at 250 g/ha turn out when COc1ccc(-c2nc(C3C(=O)[C@@H]4CC[C@@H](C4)C3=O)c(C)s2)cc1F (stereo partly shown) [Compound T76] was run?
The pest or weed control at 250 g/ha was 50%.

COc1ccc(-c2nc(C3C(=O)[C@@H]4CC[C@@H](C4)C3=O)c(C)s2)cc1 (stereo partly shown) [Compound T58] was tested. Which pest or weed control at 250 g/ha did it give?
The pest or weed control at 250 g/ha was 100%.

Which pest or weed control at 250 g/ha does the source give for CCc1sc(-c2cc(F)c(Cl)cc2Cl)nc1C1C(=O)[C@@H]2CC[C@@H](C2)C1=O (stereo partly shown) [Compound T53] here?
The pest or weed control at 250 g/ha was 100%.

How did the pest or weed control at 250 g/ha turn out when Cc1sc(-c2ccc3ccccc3c2)nc1C1C(=O)[C@@H]2CC[C@@H](C2)C1=O (stereo partly shown) [Compound T63] was run?
Its pest or weed control at 250 g/ha is 100%.

test system: Amaranthus retoflexus (AMARE); assay: Example B pre-emergence herbicidal activity; type: in vivo; conditions: Amaranthus retroflexus, 312 h, rate 250 g/ha, evaluated after 13 days, read-out: Pre-Emergence Activity AMARE (100=total damage to plant; 0=no damage to plant)
How it was run: as §1

With COc1ccc(-c2nc(C3C(=O)[C@@H]4CC[C@@H](C4)C3=O)c(C)s2)cc1F (stereo partly shown) [Compound T76] as the compound, how does the pest or weed control at 250 g/ha read?
The pest or weed control at 250 g/ha was 0%.

COc1ccc(-c2nc(C3C(=O)[C@@H]4CC[C@@H](C4)C3=O)c(C)s2)cc1 (stereo partly shown) [Compound T58] was tested. Which pest or weed control at 250 g/ha did it give?
The pest or weed control at 250 g/ha was 0%.

CCc1sc(-c2cc(F)c(Cl)cc2Cl)nc1C1C(=O)[C@@H]2CC[C@@H](C2)C1=O (stereo partly shown) [Compound T53] was tested. Which pest or weed control at 250 g/ha did it give?
The pest or weed control at 250 g/ha was 0%.

Cc1sc(-c2ccc3ccccc3c2)nc1C1C(=O)[C@@H]2CC[C@@H](C2)C1=O (stereo partly shown) [Compound T63] was tested. Which pest or weed control at 250 g/ha did it give?
The pest or weed control at 250 g/ha was 0%.

test system: Avena fatua (AVEFA); assay: Example B pre-emergence herbicidal activity; type: in vivo; conditions: 312 h, rate 250 g/ha, evaluated after 13 days, read-out: Pre-Emergence Activity AVEFA (100=total damage to plant; 0=no damage to plant)
How it was run: as §1

For COc1ccc(-c2nc(C3C(=O)[C@@H]4CC[C@@H](C4)C3=O)c(C)s2)cc1F (stereo partly shown) [Compound T76], which pest or weed control at 250 g/ha is on record?
The pest or weed control at 250 g/ha was 0%.

Which pest or weed control at 250 g/ha does the source give for COc1ccc(-c2nc(C3C(=O)[C@@H]4CC[C@@H](C4)C3=O)c(C)s2)cc1 (stereo partly shown) [Compound T58] here?
The pest or weed control at 250 g/ha was 60%.

With CCc1sc(-c2cc(F)c(Cl)cc2Cl)nc1C1C(=O)[C@@H]2CC[C@@H](C2)C1=O (stereo partly shown) [Compound T53] as the compound, how does the pest or weed control at 250 g/ha read?
The pest or weed control at 250 g/ha was 80%.

Cc1sc(-c2ccc3ccccc3c2)nc1C1C(=O)[C@@H]2CC[C@@H](C2)C1=O (stereo partly shown) [Compound T63] was tested. Which pest or weed control at 250 g/ha did it give?
Its pest or weed control at 250 g/ha is 90%.

test system: Alopecurus myosuroides (ALOMY); assay: Example B pre-emergence herbicidal activity; type: in vivo; conditions: 312 h, rate 250 g/ha, evaluated after 13 days, read-out: Pre-Emergence Activity ALOMY (100=total damage to plant; 0=no damage to plant)
How it was run: as §1

Which pest or weed control at 250 g/ha does the source give for COc1ccc(-c2nc(C3C(=O)[C@@H]4CC[C@@H](C4)C3=O)c(C)s2)cc1F (stereo partly shown) [Compound T76] here?
The pest or weed control at 250 g/ha was 0%.

For COc1ccc(-c2nc(C3C(=O)[C@@H]4CC[C@@H](C4)C3=O)c(C)s2)cc1 (stereo partly shown) [Compound T58], which pest or weed control at 250 g/ha is on record?
The pest or weed control at 250 g/ha was 60%.

Which pest or weed control at 250 g/ha does the source give for CCc1sc(-c2cc(F)c(Cl)cc2Cl)nc1C1C(=O)[C@@H]2CC[C@@H](C2)C1=O (stereo partly shown) [Compound T53] here?
The pest or weed control at 250 g/ha was 90%.

How did the pest or weed control at 250 g/ha turn out when Cc1sc(-c2ccc3ccccc3c2)nc1C1C(=O)[C@@H]2CC[C@@H](C2)C1=O (stereo partly shown) [Compound T63] was run?
Its pest or weed control at 250 g/ha is 90%.

test system: Setaria faberi (SETFA); assay: Example B post-emergence herbicidal activity; type: in vivo; conditions: 312 h, rate 250 g/ha, evaluated after 13 days, read-out: Post-emergence activity SETFA (100=total damage to plant; 0=no damage to plant)
How it was run: as §1

COc1ccc(-c2nc(C3C(=O)[C@@H]4CC[C@@H](C4)C3=O)c(C)s2)cc1F (stereo partly shown) [Compound T76] was tested. Which pest or weed control at 250 g/ha did it give?
Its pest or weed control at 250 g/ha is 80%.

For COc1ccc(-c2nc(C3C(=O)[C@@H]4CC[C@@H](C4)C3=O)c(C)s2)cc1 (stereo partly shown) [Compound T58], which pest or weed control at 250 g/ha is on record?
Its pest or weed control at 250 g/ha is 100%.

CCc1sc(-c2cc(F)c(Cl)cc2Cl)nc1C1C(=O)[C@@H]2CC[C@@H](C2)C1=O (stereo partly shown) [Compound T53] was tested. Which pest or weed control at 250 g/ha did it give?
The pest or weed control at 250 g/ha was 100%.

How did the pest or weed control at 250 g/ha turn out when Cc1sc(-c2ccc3ccccc3c2)nc1C1C(=O)[C@@H]2CC[C@@H](C2)C1=O (stereo partly shown) [Compound T63] was run?
The pest or weed control at 250 g/ha was 100%.

test system: Echinochloa crus-galli (ECHCG); assay: Example B post-emergence herbicidal activity; type: in vivo; conditions: 312 h, rate 250 g/ha, evaluated after 13 days, read-out: Post-emergence activity ECHCG (100=total damage to plant; 0=no damage to plant)
How it was run: as §1

With COc1ccc(-c2nc(C3C(=O)[C@@H]4CC[C@@H](C4)C3=O)c(C)s2)cc1F (stereo partly shown) [Compound T76] as the compound, how does the pest or weed control at 250 g/ha read?
Its pest or weed control at 250 g/ha is 90%.

Which pest or weed control at 250 g/ha does the source give for COc1ccc(-c2nc(C3C(=O)[C@@H]4CC[C@@H](C4)C3=O)c(C)s2)cc1 (stereo partly shown) [Compound T58] here?
The pest or weed control at 250 g/ha was 100%.

How did the pest or weed control at 250 g/ha turn out when CCc1sc(-c2cc(F)c(Cl)cc2Cl)nc1C1C(=O)[C@@H]2CC[C@@H](C2)C1=O (stereo partly shown) [Compound T53] was run?
The pest or weed control at 250 g/ha was 100%.

Cc1sc(-c2ccc3ccccc3c2)nc1C1C(=O)[C@@H]2CC[C@@H](C2)C1=O (stereo partly shown) [Compound T63] was tested. Which pest or weed control at 250 g/ha did it give?
Its pest or weed control at 250 g/ha is 100%.

test system: Amaranthus retoflexus (AMARE); assay: Example B post-emergence herbicidal activity; type: in vivo; conditions: Amaranthus retroflexus, 312 h, rate 250 g/ha, evaluated after 13 days, read-out: Post-emergence activity AMARE (100=total damage to plant; 0=no damage to plant)
How it was run: as §1

How did the pest or weed control at 250 g/ha turn out when COc1ccc(-c2nc(C3C(=O)[C@@H]4CC[C@@H](C4)C3=O)c(C)s2)cc1F (stereo partly shown) [Compound T76] was run?
Its pest or weed control at 250 g/ha is 0%.

For COc1ccc(-c2nc(C3C(=O)[C@@H]4CC[C@@H](C4)C3=O)c(C)s2)cc1 (stereo partly shown) [Compound T58], which pest or weed control at 250 g/ha is on record?
The pest or weed control at 250 g/ha was 0%.

With CCc1sc(-c2cc(F)c(Cl)cc2Cl)nc1C1C(=O)[C@@H]2CC[C@@H](C2)C1=O (stereo partly shown) [Compound T53] as the compound, how does the pest or weed control at 250 g/ha read?
The pest or weed control at 250 g/ha was 0%.

Cc1sc(-c2ccc3ccccc3c2)nc1C1C(=O)[C@@H]2CC[C@@H](C2)C1=O (stereo partly shown) [Compound T63] was tested. Which pest or weed control at 250 g/ha did it give?
The pest or weed control at 250 g/ha was 0%.

test system: Avena fatua (AVEFA); assay: Example B post-emergence herbicidal activity; type: in vivo; conditions: 312 h, rate 250 g/ha, evaluated after 13 days, read-out: Post-emergence activity AVEFA (100=total damage to plant; 0=no damage to plant)
How it was run: as §1

With COc1ccc(-c2nc(C3C(=O)[C@@H]4CC[C@@H](C4)C3=O)c(C)s2)cc1F (stereo partly shown) [Compound T76] as the compound, how does the pest or weed control at 250 g/ha read?
Its pest or weed control at 250 g/ha is 50%.

How did the pest or weed control at 250 g/ha turn out when COc1ccc(-c2nc(C3C(=O)[C@@H]4CC[C@@H](C4)C3=O)c(C)s2)cc1 (stereo partly shown) [Compound T58] was run?
The pest or weed control at 250 g/ha was 80%.

How did the pest or weed control at 250 g/ha turn out when CCc1sc(-c2cc(F)c(Cl)cc2Cl)nc1C1C(=O)[C@@H]2CC[C@@H](C2)C1=O (stereo partly shown) [Compound T53] was run?
Its pest or weed control at 250 g/ha is 100%.

With Cc1sc(-c2ccc3ccccc3c2)nc1C1C(=O)[C@@H]2CC[C@@H](C2)C1=O (stereo partly shown) [Compound T63] as the compound, how does the pest or weed control at 250 g/ha read?
Its pest or weed control at 250 g/ha is 70%.

test system: Alopecurus myosuroides (ALOMY); assay: Example B post-emergence herbicidal activity; type: in vivo; conditions: 312 h, rate 250 g/ha, evaluated after 13 days, read-out: Post-emergence activity ALOMY (100=total damage to plant; 0=no damage to plant)
How it was run: as §1

Which pest or weed control at 250 g/ha does the source give for COc1ccc(-c2nc(C3C(=O)[C@@H]4CC[C@@H](C4)C3=O)c(C)s2)cc1F (stereo partly shown) [Compound T76] here?
Its pest or weed control at 250 g/ha is 70%.

How did the pest or weed control at 250 g/ha turn out when COc1ccc(-c2nc(C3C(=O)[C@@H]4CC[C@@H](C4)C3=O)c(C)s2)cc1 (stereo partly shown) [Compound T58] was run?
Its pest or weed control at 250 g/ha is 90%.

Which pest or weed control at 250 g/ha does the source give for CCc1sc(-c2cc(F)c(Cl)cc2Cl)nc1C1C(=O)[C@@H]2CC[C@@H](C2)C1=O (stereo partly shown) [Compound T53] here?
The pest or weed control at 250 g/ha was 100%.

For Cc1sc(-c2ccc3ccccc3c2)nc1C1C(=O)[C@@H]2CC[C@@H](C2)C1=O (stereo partly shown) [Compound T63], which pest or weed control at 250 g/ha is on record?
Its pest or weed control at 250 g/ha is 60%.
